Assay results reported in US4492693A, “Benzothienylglycyl cephalosporin derivatives” (priority 1983, dated 1985).
≈ marks a conversion by molar mass, not a printed value. Read-outs that look alike come from different tables or passages of the source.

Columns and labels:
Assay in all cases: Agar Dilution MIC (Table I)
Format in all cases: cell-based
Strep. A = conditions: strain C203; read-out: Agar Dilution MIC
Staph. aureus = conditions: Staphylococcus aureus
H. influ. = conditions: read-out: Agar Dilution MIC
Klebsiella = conditions: for MIC: Klebsiella, read-out: Agar Dilution MIC
Strep. D = conditions: for MIC: read-out: Agar Dilution MIC
From the text: A typical and preferred compound provided by this invention is 7-(3-benzothienyl)glycylamido-3-methyl-3-cephem-4-carboxylic acid, the compound illustrated in Example 9. The antibacterial activity of this compound has been determined in standard in vitro agar dilution assays against a variety of gram positive and gram negative microorganism. The following Tables present typical minimum inhibitory concentrations (MIC's) in μg/ml for several compounds of the invention when evaluated against the indicated microorganisms. MIC's for several known compounds are also presented for comparison.
Agar Dilution MIC (μg/ml)

Strep. PN = conditions: strain PARK
E. coli = conditions: Escherichia coli
Staph. epi = conditions: read-out: Agar Dilution MIC
[1] = read-out: Agar Dilution MIC, strain S13E
[2] = strain V41, read-out: Agar Dilution MIC
[3] = strain X1.1, read-out: Agar Dilution MIC
[4] = strain X400, read-out: Agar Dilution MIC

SMILES	MIC (Strep. A) [µg/mL]	MIC (Staph. aureus; [1]) [µg/mL]	MIC (Staph. aureus; [2]) [µg/mL]	MIC (Staph. aureus; [3]) [µg/mL]	MIC (Staph. aureus; [4]) [µg/mL]	MIC (H. influ.) [µg/mL]	MIC (H. influ.; strain 76) [µg/mL]	MIC (Klebsiella) [µg/mL]	MIC (Strep. PN) [µg/mL]	MIC (E. coli; strain EC14) [µg/mL]	MIC (E. coli; strain N10) [µg/mL]	MIC (E. coli; strain TEM) [µg/mL]	MIC (Staph. epi; strain 222) [µg/mL]	MIC (H. influ.; strain C.L.) [µg/mL]	MIC (Klebsiella; strain KAE) [µg/mL]	MIC (Klebsiella; strain X26) [µg/mL]	MIC (Klebsiella; strain X68) [µg/mL]	MIC (Strep. D; strain 2041) [µg/mL]	MIC (Strep. D; strain X66) [µg/mL]	MIC (Staph. epi; strain EPI1) [µg/mL]	also measured
CC1=C(C(=O)O)N2C(=O)C(NC(=O)[C@@H](N)c3csc4cccc(Cl)c34)C2SC1 (stereo partly drawn) [Ex. 36A, L-7-(4-chloro-3-benzothienyl)glycylamido-3-methyl-3-cephem-4-carboxylic acid]	16 (≈ 36.5 µM)	128 (≈ 292 µM)	128 (≈ 292 µM)	64 (≈ 146 µM)	128 (≈ 292 µM)	128 (≈ 292 µM)	4 (≈ 9.13 µM)	128 (≈ 292 µM)	8 (≈ 18.3 µM)	128 (≈ 292 µM)	128 (≈ 292 µM)	128 (≈ 292 µM)	64 (≈ 146 µM)								Agar Dilution MIC (Klebsiella; strain KAE): 128 µg/mL; Agar Dilution MIC (Klebsiella; strain X68): 128 µg/mL; MIC (Strep. D): 128 µg/mL (≈ 292 µM); Agar Dilution MIC (Strep. D; strain 2041): 128 µg/mL; MIC (Staph. epi): 128 µg/mL (≈ 292 µM)
CC1=C(C(=O)O)N2C(=O)C(NC(=O)[C@H](N)c3csc4cccc(Cl)c34)C2SC1 (stereo partly drawn) [Ex. 36B, D-7-(4-chloro-3-benzothienyl)glycylamido-3-methyl-3-cephem-4-carboxylic acid]	8 (≈ 18.3 µM)	128 (≈ 292 µM)	128 (≈ 292 µM)	16 (≈ 36.5 µM)	128 (≈ 292 µM)	128 (≈ 292 µM)	16 (≈ 36.5 µM)	128 (≈ 292 µM)	8 (≈ 18.3 µM)	128 (≈ 292 µM)	128 (≈ 292 µM)	128 (≈ 292 µM)	8 (≈ 18.3 µM)								Agar Dilution MIC (Klebsiella; strain KAE): 128 µg/mL; Agar Dilution MIC (Klebsiella; strain X68): 128 µg/mL; MIC (Strep. D): 128 µg/mL (≈ 292 µM); Agar Dilution MIC (Strep. D; strain 2041): 128 µg/mL; MIC (Staph. epi): 128 µg/mL (≈ 292 µM)
CC1=C(C(=O)O)N2C(=O)C(NC(=O)[C@@H](N)c3csc4cc(Cl)ccc34)C2SC1 (stereo partly drawn) [Ex. 37A, L-7-(6-Chloro-3-benzothienyl)glycylamido-3-methyl-3-cephem-4-carboxylic acid]	4 (≈ 9.13 µM)	64 (≈ 146 µM)	64 (≈ 146 µM)	16 (≈ 36.5 µM)	128 (≈ 292 µM)		2 (≈ 4.57 µM)		16 (≈ 36.5 µM)	128 (≈ 292 µM)	128 (≈ 292 µM)	128 (≈ 292 µM)	32 (≈ 73.1 µM)	128 (≈ 292 µM)	128 (≈ 292 µM)	64 (≈ 146 µM)	128 (≈ 292 µM)	128 (≈ 292 µM)	128 (≈ 292 µM)	64 (≈ 146 µM)	
CC1=C(C(=O)O)N2C(=O)C(NC(=O)[C@H](N)c3csc4cc(Cl)ccc34)C2SC1 (stereo partly drawn) [Ex. 37B, D-7-(6-chloro-3-benzothienyl)glycylamido-3-methyl-3-cephem-4-carboxylic acid]	0.5 (≈ 1.14 µM)		8 (≈ 18.3 µM)	1 (≈ 2.28 µM)	16 (≈ 36.5 µM)		1 (≈ 2.28 µM)		1 (≈ 2.28 µM)	128 (≈ 292 µM)	128 (≈ 292 µM)	128 (≈ 292 µM)	2 (≈ 4.57 µM)	8 (≈ 18.3 µM)	128 (≈ 292 µM)	4 (≈ 9.13 µM)	128 (≈ 292 µM)	32 (≈ 73.1 µM)	128 (≈ 292 µM)	4 (≈ 9.13 µM)	
CC1=C(C(=O)O)N2C(=O)C(NC(=O)[C@@H](N)c3csc4ccc(Cl)cc34)C2SC1 (stereo partly drawn) [Ex. 38A, L-7-(5-chloro-3-benzothienyl)glycylamido-3-methyl-3-cephem-4-carboxylic acid]	1 (≈ 2.28 µM)	16 (≈ 36.5 µM)	32 (≈ 73.1 µM)	8 (≈ 18.3 µM)	64 (≈ 146 µM)		2 (≈ 4.57 µM)		2 (≈ 4.57 µM)	64 (≈ 146 µM)	64 (≈ 146 µM)	64 (≈ 146 µM)	16 (≈ 36.5 µM)	32 (≈ 73.1 µM)	64 (≈ 146 µM)	16 (≈ 36.5 µM)	64 (≈ 146 µM)	64 (≈ 146 µM)	64 (≈ 146 µM)	16 (≈ 36.5 µM)	
CC1=C(C(=O)O)N2C(=O)C(NC(=O)[C@H](N)c3csc4ccc(Cl)cc34)C2SC1 (stereo partly drawn) [Ex. 38B, D-7-(5-chloro-3-benzothienyl)glycylamido-3-methyl-3-cephem-4-carboxylic acid]	0.25 (≈ 0.571 µM)		4 (≈ 9.13 µM)	1 (≈ 2.28 µM)	8 (≈ 18.3 µM)				0.25 (≈ 0.571 µM)	64 (≈ 146 µM)	64 (≈ 146 µM)	64 (≈ 146 µM)	2 (≈ 4.57 µM)		64 (≈ 146 µM)	2 (≈ 4.57 µM)	64 (≈ 146 µM)	32 (≈ 73.1 µM)	64 (≈ 146 µM)	4 (≈ 9.13 µM)	
